Measurements from patent publication US20050075619A1, “Container for linezolid intravenous solution” (priority 2000, published 2005).

Assay: loss of linezolid in IV aqueous solution during and following terminal moist heat sterilization in the container
Format: physicochemical
Conditions: container-solution contact surface made of at least 50% polyolefin
Method: The linezolid IV solution is formulated by heating water for injection from about 50 to about 65°. Next the sodium citrate, citric acid and dextrose are added and stirred until dissolved. An aqueous slurry of linezolid is added to the previous mixture and stirred until dissolved. The mixture is cooled to 25° with stirring. The pH is measured and adjusted if necessary. Last the mixture is brought to volume, if necessary, with water for injection. The mixture is filtered, filled into infusion containers, over wrapped and terminally moist heat sterilized.
When terminally moist heat sterilizing an IV solution, the solution is placed in the container in which (1) it will be stored and then transferred to the container from which it will ultimately be administered, or (2) stored and then ultimately administered from the same container to deliver the IV solution to the patient. Therefore, it is imperative that the pharmaceutically active ingredient (oxazolidinone, linezolid) not react with the container in which it is to be terminally moist heat sterilized and stored/stored-administered.
What is essential is that the container-solution contact surface material be primarily a polyolefin; the remainder of the container can be made from polyolefin or other materials. It is preferred that the container-solution contact surface is made of from about 50 to about 100% polyolefin. […]

SMILES: CC(=O)NC[C@H]1CN(c2ccc(N3CCOCC3)c(F)c2)C(=O)O1 [linezolid, (S)-N-[[3-[3-fluoro-4-(4-morpholinyl)phenyl]-2-oxo-5-oxazolidinyl]methyl]acetamide]
- loss of linezolid during and following terminal moist heat sterilization: significantly much less loss
